From patent US11072628B2, “Nucleoside analogues for the treatment of parasitic infections” (UNIVERSITEIT GENT, priority 2017, dated 2021)
Read-outs that look alike come from different tables or passages of the source.

Columns and labels:
T. brucei Squib 427 = test: In vitro drug susceptibility, T. brucei Squib 427 (resazurin); format: cell-based, Trypanosoma brucei brucei
Protocol: (§1) All trypanosome strains were cultured in the standard HMI-9 medium supplemented with 10% fetal bovine serum (FBS) at 37° C. in a 5% CO2 atmosphere.

[1] = test system: T. b. rhodesiense STIB-900; test: In vitro drug susceptibility, T. b. rhodesiense STIB-900 (resazurin); format: cell-based, Trypanosoma brucei rhodesiense
Protocol: as §1

[2] = Cytotoxicity against MRC-5 fibroblasts; conditions: human
Protocol: (§2) Cytotoxicity was assayed against MRC-5 fibroblasts. Results are depicted in Tables 4 and 5.

[3] = test system: T. cruzi Tulahuen CL2 β galactosidase strain; test: T. cruzi Tulahuen CL2 β galactosidase strain on MRC-5SV2 cells (CPRG); format: cell-based, Trypanosoma cruzi
Protocol: All cultures and assays were conducted at 37° C./5% CO2. […] The results were expressed as % reduction in parasite burdens compared to control wells from which an EC50 was calculated.

MRC-5 fibroblasts = test: in vitro
Protocol: as §2

[4] = Trypanosoma brucei, read-out: T. brucei brucei EC50, Table 1, average of 2-4 independent determinations
[5] = Trypanosoma brucei, RHODESIENSE, read-out: T. brucei rhod. EC50
[6] = MRC-5 fibroblasts, MRC-5 EC50, Table 1, cytotoxicity
[7] = MRC-5 fibroblasts, MRC-5 EC50, Table 2, cytotoxicity
[8] = Trypanosoma cruzi, TULAHUEN, MRC-5 SV2, Table 2, average of 2-3 independent replicates
[9] = Table 1, average of 2-4 independent determinations, read-out: T. brucei brucei EC50
[10] = Table 1, average of 2-4 independent determinations, read-out: T. brucei rhod. EC50
[11] = Table 2, average of 2-3 independent replicates
[12] = Trypanosoma brucei, read-out: T.b. brucei EC50, Table 4, average of 2-6 independent determinations
[13] = Trypanosoma brucei, RHODESIENSE, read-out: T.b. rhod. EC50
[14] = MRC-5 fibroblasts, MRC-5 EC50, Table 4, cytotoxicity
[15] = MRC-5 fibroblasts, MRC-5 EC50, Table 5, cytotoxicity
[16] = Trypanosoma cruzi, TULAHUEN, MRC-5 SV2, Table 5, average of 2-4 independent replicates
[17] = Trypanosoma brucei, Table 1, average of 2-4 independent determinations, read-out: T. brucei brucei EC50
[18] = Trypanosoma brucei, RHODESIENSE, Table 1, average of 2-4 independent determinations, read-out: T. brucei rhod. EC50

SMILES	EC50 (T. brucei Squib 427; [4]) [µM]	EC50 [1, 5] [µM]	EC50 [3, 8] [µM]	EC50 (T. brucei Squib 427; [12]) [µM]	EC50 [1, 13] [µM]	EC50 [2, 14] [µM]	EC50 [2, 15] [µM]	EC50 [3, 16] [µM]	further results
Nc1ncnc2c1ccn2[C@@H]1O[C@H](CO)C[C@@H]1O [FH10650, 4-amino-N7-(2′-arabino-3′-deoxy-β-D-ribofuranosyl)-pyrrolo[2,3-d]pyrimidine]	6.62	0.6	> 64	–	–	–	–	–	EC50 [2, 6]: > 64 µM; EC50 [2, 7]: > 64 µM
Nc1ncnc2c1cc(Br)n2[C@@H]1O[C@H](CO)C[C@H]1O [FH10622, 4-amino-6-bromo-N7-(3′-deoxy-β-D-ribfuranosyl)-pyrrolo[2,3-d]pyrimidine]	–	–	–	–	–	–	–	–	EC50 (T. brucei Squib 427; [9]): 4.97 µM; EC50 [1, 10]: 1.02 µM; EC50 (MRC-5 fibroblasts): > 64 µM; EC50 [3, 11]: > 64 µM
CC(C)c1ccc(-c2cn([C@@H]3O[C@H](CO)C[C@H]3O)c3ncnc(N)c23)cc1 [FH9574, 4-amino-5-(4-isopropylphenyl)-N7-(3′-deoxy-β-D-ribofuranosyl)-pyrrolo[2,3-d]pyrimidine]	–	–	–	–	–	–	–	–	EC50 (T. brucei Squib 427; [9]): > 64 µM; EC50 [1, 10]: 55.9 µM; EC50 (MRC-5 fibroblasts): 24.9 µM; EC50 [3, 11]: 8.5 µM
Nc1ncnc2c1c(-c1ccc(Cl)cc1Cl)cn2[C@@H]1O[C@H](CO)C[C@H]1O [FH9581, 4-amino-5-(2,4-dichlorophenyl)-N7-(3′-deoxy-β-D-ribofuranosyl)-pyrrolo[2,3-d]pyrimidine]	19.6	7.3	0.5	–	–	–	–	–	EC50 [2, 6]: 19.6 µM; EC50 [2, 7]: 19.6 µM
CCCCOc1ncnc2c1c(Cl)cn2[C@@H]1O[C@H](CO)[C@@H](O)[C@H]1O [FH9530, 4-n-butoxy-5-chloro-N7-(β-D-ribofuranosyl)-pyrrolo[2,3-d]pyrimidine]	–	–	–	0.07	0.04	1.32	1.32	0.45	–
Nc1ncnc2c1c(-c1cnccn1)cn2[C@@H]1O[C@H](CO)[C@@H](O)[C@H]1O [FH3179, 4-amino-5-(pyrazine-2-yl)-N7-(β-D-ribofuranosyl)-pyrrolo[2,3-d]pyrimidine]	–	–	–	1.95	–	0.55	0.55	0.86	cytotoxicity, in words (MRC-5 fibroblasts): submicromolar cytotoxicity
C=Cc1cn([C@@H]2O[C@H](CO)C[C@H]2O)c2ncnc(N)c12 [FH10659, 4-amino-5-vinyl-N7-(3′-deoxy-β-D-ribfuranosyl)-pyrrolo[2,3-d]pyrimidine]	0.04	0.005	9.44	–	–	–	–	–	–
Nc1ncnc2c1c(F)cn2[C@@H]1O[C@H](CO)C[C@H]1O [FH8517, 4-amino-5-fluoro-N7-(3′-deoxy-β-D-ribofuranosyl)-pyrrolo[2,3-d]pyrimidine]	0.002	0.0003	1.22	–	–	–	–	–	EC50 [2, 6]: 3.6 µM; EC50 [2, 7]: 3.6 µM
Nc1ncnc2c1c(Br)cn2[C@@H]1O[C@H](CO)C[C@@H]1O [FH10628, 4-amino-5-bromo-N7-(2′-arabino-3′-deoxy-β-D-ribofuranosyl)-pyrrolo[2,3-d]pyrimidine]	0.13	0.03	1.47	–	–	–	–	–	EC50 [2, 6]: 45.6 µM; EC50 [2, 7]: 45.6 µM
CCOc1ncnc2c1c(Cl)cn2[C@@H]1O[C@H](CO)[C@@H](O)[C@H]1O [FH9529, 4-ethoxy-5-chloro-N7-(β-D-ribfuranosyl)-pyrrolo[2,3-d]pyrimidine]	–	–	–	0.12	0.06	48.5	48.5	6.29	–
Nc1ncnc2c1c(Br)cn2[C@@H]1O[C@H](CO)[C@@H](O)[C@H]1O [TH1003]	–	–	–	–	–	–	–	0.39	EC50 (T. brucei Squib 427; Trypanosoma brucei, Table 4, average of 2-6 independent determinations, read-out: T.b. brucei EC50): 1.24 µM; EC50 ([1]; Trypanosoma brucei, RHODESIENSE, Table 4, average of 2-6 independent determinations, read-out: T.b. rhod. EC50): 0.12 µM; EC50 ([2]; MRC-5 EC50): 33.3 µM
CCCOc1ncnc2c1c(Cl)cn2[C@@H]1O[C@H](CO)[C@@H](O)[C@H]1O [FH9532, 4-n-propoxy-5-chloro-N7-(β-D-ribfuranosyl)-pyrrolo[2,3-d]pyrimidine]	–	–	–	0.08	0.08	2.81	2.81	1.04	–
Cn1cnc(-c2cn([C@@H]3O[C@H](CO)[C@@H](O)[C@H]3O)c3ncnc(N)c23)c1 [FH3182]	–	–	–	–	–	–	–	–	anti-trypanosomal activity against T. brucei, in words (T. brucei Squib 427): low μM activity; EC50 (T. brucei Squib 427; Table 4, average of 2-6 independent determinations, read-out: T.b. brucei EC50): 4.76 µM; EC50 (MRC-5 fibroblasts): 23.4 µM; EC50 ([3]; Table 5, average of 2-4 independent replicates): 8.34 µM
Nc1ncnc2c1c(-c1cccc(Cl)n1)cn2[C@@H]1O[C@H](CO)[C@@H](O)[C@H]1O [MS1034, 4-amino-5-(6-chloro-pyrid-2-yl)-N7-(β-D-ribofuranosyl)-pyrrolo[2,3-d]pyrimidine]	–	–	–	1.75	0.62	> 64	> 64	> 64	–
CC(C)Oc1ncnc2c1c(Cl)cn2[C@@H]1O[C@H](CO)[C@@H](O)[C@H]1O [FH9531, 4-isopropoxy-5-chloro-N7-(β-D-ribfuranosyl)-pyrrolo[2,3-d]pyrimidine]	–	–	–	0.09	0.1	> 64	> 64	22.7	–
CC(C)(C)[Si](C)(C)O[C@@H]1C[C@@H](CO)O[C@H]1n1cc(Br)c2c(N)ncnc21 [FH9552, 4-amino-5-bromo-N7-(2′-O-t-butyldimethylsilyl-3′-deoxy-β-D-ribofuranosyl)-pyrrolo[2,3-d]pyrimidine]	–	–	–	–	–	–	–	–	EC50 (T. brucei Squib 427; [17]): 0.63 µM; EC50 [1, 18]: 0.27 µM; EC50 [2]: > 64 µM
COc1ncnc2c1c(Cl)cn2[C@@H]1O[C@H](CO)[C@@H](O)[C@H]1O [FH8446, 4-methoxy-5-chloro-N7-(β-D-ribfuranosyl)-pyrrolo[2,3-d]pyrimidine]	–	–	–	0.16	0.04	48	48	12.7	–
Nc1ncnc2c1c(Br)cn2[C@@H]1O[C@H](CO)C[C@H]1O [FH7429_U, 4-amino-5-bromo-N7-(3′-deoxy-β-D-ribofuranosyl)-pyrrolo[2,3-d]pyrimidine]	0.002	< 0.0005	0.02	–	–	–	–	–	EC50 [2, 6]: 16.1 µM; EC50 [2, 7]: 16.1 µM
Nc1ncnc2c1c(Cl)cn2[C@@H]1O[C@H](CO)C[C@H]1O [FH8470]	0.002	0.0004	0.05	–	–	–	–	–	–
O=C(Cn1ccnc1[N+](=O)[O-])NCc1ccccc1 [Benznidazole, reference compound]	–	–	2.4	–	–	–	–	–	–
Nc1ncnc2c1c(-c1cccnc1)cn2[C@@H]1O[C@H](CO)[C@@H](O)[C@H]1O [FH4185, 4-amino-5-(pyrid-3-yl)-N7-(β-D-ribofuranosyl)-pyrrolo[2,3-d]pyrimidine]	–	–	–	> 64	–	> 64	> 64	15.4	anti-trypanosomal activity against T. brucei, in words (T. brucei Squib 427): no discernible trypanocidal effects
Cc1ccc(-c2cn([C@@H]3O[C@H](CO)C[C@H]3O)c3ncnc(N)c23)cc1 [FH8481, 4-amino-5-(4-methylphenyl)-N7-(3′-deoxy-β-D-ribofuranosyl)-pyrrolo[2,3-d]pyrimidine]	33.2	18.4	0.46	–	–	–	–	–	EC50 [2, 6]: 21 µM; EC50 [2, 7]: 21 µM
CC(C)(C)[Si](C)(C)OC[C@@H]1C[C@@H](O)[C@H](n2cc(Br)c3c(N)ncnc32)O1 [FH8471, 4-Amino-5-Bromo-N7-(3′-Deoxy-5′-O-t-Butyl-Dimethylsilyl)-β-D-Ribofuranosyl-Pyrrolo[2,3-d]pyrimidine]	–	–	–	–	–	–	–	–	EC50 (T. brucei Squib 427; [17]): 1.21 µM; EC50 [1, 18]: 0.08 µM; EC50 [2]: 5.31 µM
Nc1ncnc2c1c(I)cn2[C@@H]1O[C@H](CO)C[C@H]1O [FH8496, 4-amino-5-iodo-N7-(3′-deoxy-β-D-ribfuranosyl)-pyrrolo[2,3-d]pyrimidine]	0.01	0.001	0.03	–	–	–	–	–	–
CN(C)c1ncnc2c1c(Br)cn2[C@@H]1O[C@H](CO)C[C@H]1O [FH8522, 4-dimethylamino-5-bromo-N7-(3′-deoxy-β-D-ribofuranosyl)-pyrrolo[2,3-d]pyrimidine]	1.88	0.79	20.9	–	–	–	–	–	EC50 [2, 6]: > 64 µM; EC50 [2, 7]: > 64 µM
Nc1ncnc2c1c(-c1ccc(F)cn1)cn2[C@@H]1O[C@H](CO)[C@@H](O)[C@H]1O [MS1037, 4-amino-5-(5-fluoro-pyrid-2-yl)-N7-(β-D-ribofuranosyl)-pyrrolo[2,3-d]pyrimidine]	–	–	–	4.77	1.69	> 64	> 64	31.9	–
Nc1ccnc2c1c(I)cn2[C@@H]1O[C@H](CO)[C@@H](O)[C@H]1O [FH5319, 3-iodo-4-amino-N1-(β-D-ribofuranosyl)-pyrrolo[2,3-b]pyridine]	–	–	–	0.4	> 64	> 64	> 64	0.04	–
COc1ncnc2c1c(Br)cn2[C@@H]1O[C@H](CO)[C@@H](O)[C@H]1O [FH9528, 4-methoxy-5-bromo-(N7-β-D-ribofuranosyl)-pyrrolo[2,3-d]pyrimidine]	–	–	–	0.19	0.04	> 64	> 64	24.1	–
